Series [1] has as its system RNA biosynthesis in L 1210 cells. In words: in vitro activity: RNA synthesis in L 1210 cells (14C-uridine incorporation). Format: cell-based, murine. Conditions: for IC50: Mus musculus, L1210, L 1210, 14C-uridine, 60 min pulse after 15 min with compound, 37° C. The procedure:
(§1) In an example, L 1210 cells were inoculated in RPMI (Rosewell Park Memorial Institute) 1640 medium containing 20% calf serum at the cell density of 5×10^4 cells/ml, and the compound in the present invention was simultaneously added to the medium at the concentration of 0.1 and 0.5 μg/ml and incubated at 37° C. in a CO2 incubator. 50% growth inhibition concentration of the compound over controls was determined. L 1210 cells as described above were also inoculated at 5×10^5 cells in RPMI 1640 medium containing 10% calf serum and incubated at 37° C. for 1 to 2 hours in a CO2 incubator. The cells were cultured for 15 min. at 37° C. after the compound of the present invention was added at various concentrations, and then ^14 C-uridine (0.05 μCi/ml) or ^14 C-thymidine (0.05 μCi/ml) was added and incubated for 60 additional min. at 37° C. After stopping the pulse-labeling by addition of 10% trichloroacetic acid (TCA) solution to the reaction mixture, acid-insoluble materials were precipitated, washed three times with 5 to 10% TCA, and dissolved in a small amount of formic acid. Then, radioactivity was determined, and inhibitory effects on the RNA and DNA biosynthesis were indicated by the 50% inhibition concentration (IC50) of the incorporation of radioactivity over controls.

Series [2] relates to L 1210 cells. The series is described as follows: in vitro activity: L 1210 growth inhibition. The settings on record: for IC50: Mus musculus, L1210, L 1210, RPMI 1640 with 20% calf serum, 37° C. The series is classed as cell-based, murine. The procedure: as §1
Series [3] deals with DNA biosynthesis in L 1210 cells. The series is described as follows: in vitro activity: DNA synthesis in L 1210 cells (14C-thymidine incorporation). Format: cell-based, murine. The settings on record: Mus musculus, L1210; L 1210, 14C-thymidine, 60 min pulse after 15 min with compound, 37° C. The protocol:
as §1
(Uptake of a labelled nucleoside into DNA is a usual measure of proliferation.)

For a further series, the system named is L 1210 leukemia. In words: in vivo antitumor activity: L 1210 (prolongation of lifespan of CDF1 mice inoculated intraperitoneally with L 1210 cells). The settings on record: for T/C: once daily for 10 days, from 24 h after inoculation. More on the design: species or system mice (murine; CDF1). The protocol: Antitumor effect against experimental animal tumor was examined as follows. CDF1 mice were inoculated with 1×10^5 cells of L 1210 cells intraperitoneally, and 2-hydroxyaclacinomycin A was administered intraperitoneally once daily for 10 days consecutively, 24 hours after inoculation. Prolongation of lifespan over controls (injected with only physiological saline instead of 2-hydroxyaclacinomycin A) is shown in Table 1. LD50 value in dd mice is also shown in Table 1 comparing with that of aclacinomycin A.

Series [4] can be described thus: Acute toxicity (LD50) in dd mice. Conditions: mouse, in vivo, ip; dd mice. The series is classed as in vivo.
In series [5] the test system is L 1210 cells. The series is described as follows: growth and nucleic acid biosynthesis of murine leukemia L 1210 cells in culture. The series is classed as cell-based. The protocol: as §1
A short description of series [6]: cardiotoxicity compared with aclacinomycin A. The settings on record: comparing with aclacinomycin A.
For a further series, the system named is dd mice. The series is described as follows: Acute toxicity (LD50) in dd mice. Format: in vivo. Conditions: compared with daunomycin and adriamycin.

Converted amounts (≈) assume the structure as drawn.

Usually IC50 stands for the midpoint of a concentration-inhibition curve. Broadly, the T/C is the ratio of treated to control. The LD50 is the dose expected to kill half of the subjects tested. A high value points to a less toxic substance. Turning to `CC[C@@]1(O)C[C@H](O[C@H]2C[C@H](N(C)C)[C@H](O[C@H]3C[C@H](O)[C@H](O[C@H]4CCC(=O)[C@H](C)O4)[C@H](C)O3)[C@H](C)O2)c2c(cc3c(c2O)C(=O)c2c(O)cccc2C3=O)[C@H]1C(=O)OC` [Aclacinomycin A], the IC50 in series [1] was determined as 0.1 µg/mL (≈ 0.123 µM); with L 1210 cells [2] it was 0.12 µg/mL (≈ 0.148 µM); in series [3] it was 1.1 µg/mL (≈ 1.35 µM). The T/C worked out at 130% in the series with L 1210 leukemia (0.5 mg/kg/day i.p.); 146% in the series on L 1210 leukemia (1 mg/kg/day i.p.); 165% in the series on L 1210 leukemia (2 mg/kg/day i.p.); 205% in the series with L 1210 leukemia (4 mg/kg/day i.p.); 105% with L 1210 leukemia (6 mg/kg/day i.p.). For the same molecule, the “toxicity in words at 8 mg/kg/day (in T/C column)” value in the series on L 1210 leukemia (8 mg/kg/day i.p., L 1210-bearing CDF1 mice) is reported as “Toxic”. Also, the LD50 in series [4] was found to be 22.6 mg/kg.
`CCC1(O)CC(OC2CC(N(C)C)C(OC3CC(O)C(OC4CCC(=O)C(C)O4)C(C)O3)C(C)O2)c2c(cc3c(c2O)C(=O)c2c(O)cc(O)cc2C3=O)C1C(=O)OC` (centres unmarked) [2-Hydroxyaclacinomycin A, 2-hydroxyaclacinomycin A]: the IC50 in series [1] came out at 0.1 µg/mL (≈ 0.121 µM); in the series with L 1210 cells [2] it was 0.1 µg/mL (≈ 0.121 µM); in series [3] it was 0.95 µg/mL (≈ 1.15 µM). In addition, in series [1] (mode of action compared to aclacinomycin and rhodomycin-group), the “inhibition of RNA synthesis, in words” value is given as “specifically inhibited RNA synthesis”. Further, the “suppression of growth, in words” value with L 1210 cells [2] (murine leukemic cells, low concentration) is recorded as “suppressed the growth of murine leukemic cells at low concentration”. For the same molecule, in the series with L 1210 cells [5], the “inhibition of growth and nucleic acid biosynthesis, in words” value is “inhibited markedly the growth and nucleic acid biosynthesis”. For the same molecule, the “cardiotoxicity, in words” value in series [6] was “less cardiotoxicity”. Also, the T/C is given as 145% with L 1210 leukemia (0.5 mg/kg/day i.p.); 153% with L 1210 leukemia (1 mg/kg/day i.p.); 176% in the series on L 1210 leukemia (2 mg/kg/day i.p.); 201% with L 1210 leukemia (4 mg/kg/day i.p.); 218% with L 1210 leukemia (6 mg/kg/day i.p.); 194% with L 1210 leukemia (8 mg/kg/day i.p.). Further, the T/C in the series on L 1210 leukemia (12 mg/kg/day i.p.) worked out at 127%. The “prolongation of lifespan, in words” value with L 1210 leukemia (L 1210-bearing mice) is recorded as “marked prolongation of lifespan”. The “antitumor activity, in words” value in the series on L 1210 leukemia (comparing with aclacinomycin A) is reported as “more potent antitumor activity”. The “effective dose range relative to aclacinomycin A” value with L 1210 leukemia (relative to aclacinomycin A) is “twice”. The “acute toxicity, in words” value in the series on dd mice was “much more less than those of known anthracycline antibiotics such as daunomycin and adriamycin”. The same molecule yielded an LD50 in series [4] of 50 mg/kg.

The values above are taken from patent US4386198A, “2-Hydroxyaclacinomycin A and 2-hydroxyaklavinone and process for preparing same” (priority 1979, dated 1983).
